Laboratory results: patent US10940201B2, “Nucleic acid derivative having immunostimulatory activity” (Shionogi & Co., Ltd., priority 2015, dated 2021)
In the oligonucleotide strings, read from the 5' end, every base follows the letter of its sugar. An asterisk marks phosphorothioate; unmarked linkages are phosphodiester. Other units and linkages are bracketed, terminal groups are in braces. A string of capitals states the bases alone. d = 2'-deoxy (DNA)

Columns and labels:
TRP2-specific CTL [1] = assay: CTL inducibility of TRP2 peptide vaccine with adjuvant (tetramer staining); assay type: in vivo, C57BL/6JJcl mice
Protocol: (§1) C57BL/6JJcl mice (6 to 8 weeks old) were purchased from CLEA Japan, Inc.
(§2) an adjuvant of the present invention or the well-known CpG ODN
The specific immunity was induced by vaccinating a mouse twice at 7 days intervals. Each vaccine was that 100 μg of TRP2 peptide, and 1.57 or 4.71 nmol of an adjuvant of the present invention or well-known CpG ODN, were dissolved in 1×PBS. 100 μL of the vaccine was administered subcutaneous injection on the flank of a mouse.
100 μL of the emulsion vaccine was administered subcutaneous injection on the flank of a mouse twice at 7 days intervals.
(§3) On 7 days after second vaccination, the blood was collected, red blood cells was removed by BD Pharm Lyse (BD pharmingen), and the white blood cells were suspended in FACS buffer (1% fetal bovine serum, 2 mM PBS with EDTA). Anti-mouse CD16/32 monoclonal antibody (BioXcell) was added thereto, and Fc receptor blocking was carried out at 4° C. for 30 minutes. […] Then, staining was carried out with DAPI (Invitrogen) and the cells were washed twice with FACS buffer. It was resuspended in FACS buffer and analyzed by FACS verse Flow Cytometer (BD bioscience) and FAC Suite software (BD bioscience). For analysis, after DAPI negative fraction was gated, white blood cells fraction were provided using forward and side-way scattering as indicators. In the white blood cells fraction, both positive cells of Alexa 647-CD8 and PE-H-2Kb Tetramer were defined as CTLs. CTL ratio in white blood cells was used for evaluation.
After calculation of the average CTL inducibility of each group per experiment, the ratio against average value of CTL inducibility of ssCpG ODN, ODN1826 (SEQ-1) or ODN2006 (SEQ-49) as a control was calculated.
In the case of an adjuvant comprising ODN1826 (Average of CTL inducibility of the adjuvant group)/(Average of CTL inducibility of the ODN1826 group)=the ratio against average value In the case of an adjuvant comprising ODN2006 (Average of CTL inducibility of the adjuvant group)/(Average of CTL inducibility of the ODN2006 group)=the ratio against average value
CTL inducibility of each adjuvant was shown when CTL inducibility of ssCpG ODN was taken as 1, so the bigger value means the higher CTL inducibility.

[2] = test system: antigen-specific CTL (OVA peptide); assay: CTL inducibility of OVA peptide vaccine with adjuvant (tetramer staining); assay type: in vivo, C57BL/6JJcl mice; conditions: Table 32, 1.57 nmol/head, ODN1826 (SEQ-1) group = 1
Protocol: as §1, §2
The specific immunity was induced by vaccinating a mouse twice at 7 days intervals. […] 100 μL of the vaccine was administered subcutaneous injection on the flank of a mouse.
as §3, with “CTL ratio in white blood cells was used for evaluation.” left out
After calculation of the average CTL inducibility of each group per experiment, the ratio against average value of CTL inducibility of ssCpG ODN, ODN1826 (SEQ-1) or ODN2006 (SEQ-49) as a control was calculated. […]

B16F10 cells = assay: Anti-tumor effect of TRP2 peptide vaccine using an adjuvant; assay type: in vivo, mouse
Protocol: After immunization by TRP2 peptide vaccine, B16F10 cells (ATTC) which is mouse melanoma expressing TRP2 protein was subcutaneously transplanted to evaluate anti-tumor effect. […] The major and minor axes of the engrafted tumor were measured every 2 to 3 days, and the tumor volume was calculated by the formula: (major axis×minor axis^2)/2 Calculation method for indicators of anti-tumor effect For the adjuvant comprising ODN1826 100·(average tumor volume of adjuvant group)/(average tumor volume of ODN1826 group) For the adjuvant comprising ODN2006 100·(average tumor volume of adjuvant group)/(average tumor volume of ODN2006 group)

tumor growth = assay: Anti-tumor effect (tumor inhibition rate) of OVA peptide vaccine with adjuvant; assay type: in vivo, mouse; conditions: Table 32, 1.57 nmol/head, compared to ODN1826 (SEQ-1)
Protocol: After immunization by TRP2 peptide vaccine, B16F10 cells (ATTC) which is mouse melanoma expressing TRP2 protein was subcutaneously transplanted to evaluate anti-tumor effect. In a similar method to Example 3 A), on the next day that tetramer-positive ratio in peripheral blood of mouse vaccinated twice every 7 days was observed, B16F10 cells (1×10^5 cells/mouse) were subcutaneously transplanted in the right shoulder. The major and minor axes of the engrafted tumor were measured every 2 to 3 days, and the tumor volume was calculated by the formula: (major axis×minor axis^2)/2 Calculation method for indicators of anti-tumor effect For the adjuvant comprising ODN1826 100·(average tumor volume of adjuvant group)/(average tumor volume of ODN1826 group) For the adjuvant comprising ODN2006 100·(average tumor volume of adjuvant group)/(average tumor volume of ODN2006 group)
The compound with bigger value has the stronger anti-tumor activity.
The activity of an adjuvant of the present invention having a lipid comprising two acyl chains comprising 10 to 20 carbon atoms as a ligand was examined with OVA peptide.

recombinant PCRV protein = assay: Inducibility of antibody production in immunization by PCRV antigen vaccine (antibody titer); assay type: in vivo; conditions: A/J mice, recombinant PCRV protein with adjuvant, intradermal; antiserum Day 33; FIG. 15
Protocol: Perv nucleotide sequence (SEQ ID NO: 48) derived from Pseudomonas aeruginosa Strain PAO1 was cloned at NdeI-XhoI site in pET21a vector, and Escherichia coli strain BL21 (DE3) was transformed with the prepared plasmid. Strain perV-BL21 (DE3) was cultured in 500 mL of LB/Ampicillin liquid medium at 37° C., and 200 μL of 0.1 M IPTG was added when OD600 became 0.5 to induce expression of recombinant PCRV protein. After culturing at 16° C. for 18 hours, bacteria was separated by a centrifuge, and 15 ml of Buffer A (50 mM Tris-HCl (pH8.0), 0.2M NaCl) comprising 0.5% lysozyme (SIGMA Corporation) was added. After putting at 4° C. for 30 minutes, ultrasonic treatment was carried out. After centrifugation at 12,000 rpm for 10 minutes, soluble fraction was obtained. 1 mL of Ni-NTA agarose gel (QIAGEN) was added to Polyprep column (BIO-RAD Laboratories, Inc) and equilibrated with 10 mL of Buffer A. Soluble fraction was added to the column and passed. […] The resulting recombinant PCRV protein was measured the concentration with BCA assay kit (PIERCE) and kept at −80° C. […]
Antibody titer was measured as blow. […] 20 μL/well of 0.5 N sulfuric acid (Nacalai) was added, and absorbance at 450 nm was measured with a plate reader. The dilution ratio when absorbance at 450 nm is 1.0 was calculated and put as an antibody titer.

human TLR9 = biological target: T1, human TLR9 (Homo sapiens, UniProt Q9NR96); assay: Reporter assay with HEK-Blue hTLR9 cells (TLR9 agonist activity); assay type: cell-based; conditions: Table 30; CpG oligonucleotides except for ODN2006 and their double strands; read-out: EC50
T1 construct: host or cells: HEK-Blue hTLR9 cells (HEK293)
T1 sequence (Q9NR96 26-1032): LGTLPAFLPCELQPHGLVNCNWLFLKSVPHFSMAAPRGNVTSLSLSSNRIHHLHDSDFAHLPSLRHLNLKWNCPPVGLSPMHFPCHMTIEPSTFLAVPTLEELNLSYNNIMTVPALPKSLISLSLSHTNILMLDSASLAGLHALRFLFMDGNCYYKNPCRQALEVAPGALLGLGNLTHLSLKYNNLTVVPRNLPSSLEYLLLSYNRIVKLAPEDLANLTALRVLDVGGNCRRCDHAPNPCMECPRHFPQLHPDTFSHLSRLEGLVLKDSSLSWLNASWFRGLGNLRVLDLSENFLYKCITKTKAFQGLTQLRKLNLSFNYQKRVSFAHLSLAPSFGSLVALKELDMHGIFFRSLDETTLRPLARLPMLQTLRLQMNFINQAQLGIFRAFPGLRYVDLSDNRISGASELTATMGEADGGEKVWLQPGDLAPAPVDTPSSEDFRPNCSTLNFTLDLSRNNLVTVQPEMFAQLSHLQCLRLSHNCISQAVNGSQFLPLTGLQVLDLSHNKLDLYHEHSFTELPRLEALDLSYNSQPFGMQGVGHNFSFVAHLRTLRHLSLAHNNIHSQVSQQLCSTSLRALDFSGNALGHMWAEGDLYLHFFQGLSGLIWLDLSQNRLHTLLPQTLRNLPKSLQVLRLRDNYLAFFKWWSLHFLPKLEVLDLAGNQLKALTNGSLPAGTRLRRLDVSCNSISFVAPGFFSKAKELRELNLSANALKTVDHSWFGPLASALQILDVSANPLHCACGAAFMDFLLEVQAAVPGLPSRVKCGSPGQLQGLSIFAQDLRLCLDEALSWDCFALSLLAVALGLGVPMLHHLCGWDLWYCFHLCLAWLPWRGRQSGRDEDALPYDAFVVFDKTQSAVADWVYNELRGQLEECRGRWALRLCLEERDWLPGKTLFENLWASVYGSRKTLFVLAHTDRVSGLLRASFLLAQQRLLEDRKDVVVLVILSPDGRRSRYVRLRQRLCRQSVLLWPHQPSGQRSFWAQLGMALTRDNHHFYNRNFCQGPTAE
Protocol: HEK-Blue™ hTLR9 cells (Invivogen) used for the reporter assay were made by introducing human TLR9 gene and a reporter gene that secretory alkaline phosphatase gene bound to NF-kB-AP-1 binding region sequence in HEK293 cells, and are the cells stably expressing the both genes. 3.6×10^4 of the cells suspended in HEK-Blue™ Detection ([…]) comprising substrates against the alkaline phosphatase were seeded on the 96 well plate, and 3 nM to 30 μM of a lipid binding double-stranded oligonucleotide of the present invention, the known CpG oligonucleotides (ODN2006, SEQ-49), or adjuvant based on design in Patent Document 1, i.e., ssCpG ODN introducing a lipid ligand (SEQ-142, 143 or 144) was added. After culturing in a 37° C., 5% CO2 incubator for 16 hours, absorbency at 620 nm was measured using the culture supernatant developed a color. The result value was analyzed with TIBCO Spotfire software, and calculated the 50% effective concentration (EC50) of each oligonucleotide.

TRP2-specific CTL [3] = assay: CTL inducibility of TRP2 peptide vaccine with adjuvant (tetramer staining); assay type: in vivo, C57BL/6JJcl mice; remark: listed apart in the source
[4] = Table 56, 4.71 nmol, SEQ-256 (D35-CpG) group = 1
[5] = Table 65, 4.71 nmol, respective ssCpG ODN (ODN2216, ODN684, D-LS01) group = 1

ODN1826 [SEQ-1]
Ratio of average value of antigen-specific CTL (TRP2-specific CTL [1]; Table 31, 1.57 nmol/head, ODN1826 (SEQ-1) group = 1): 1.00 | Ratio of average value of antigen-specific CTL (TRP2-specific CTL [1]; Table 33, 1.57 nmol/head, ODN1826 (SEQ-1) group = 1): 1.00 | Ratio of average value of antigen-specific CTL (TRP2-specific CTL [1]; Table 34, 1.57 nmol/head, ODN1826 (SEQ-1) group = 1): 1.00 | Ratio of average value of antigen-specific CTL (TRP2-specific CTL [1]; Table 35, 1.57 nmol/head, ODN1826 (SEQ-1) group = 1): 1.00 | Ratio of average value of antigen-specific CTL (TRP2-specific CTL [1]; Table 36, 1.57 nmol/head (Montanide 100 μL), ODN1826 (SEQ-1) group = 1): 1.00 | Ratio of average value of antigen-specific CTL (TRP2-specific CTL [1]; Table 37, 1.57 nmol/head, ODN1826 (SEQ-1) group = 1): 1.00 | CTL inducibility (in words) (TRP2-specific CTL [1]; adjuvants comprising ODN1826): TRP2-specific CTL was induced | Ratio of average value of antigen-specific CTL [2]: 1.00 | effect of inhibition on tumor progression of B16F10 cells (in words) (B16F10 cells): little effect of inhibition on tumor progression of B16F10 cells | Tumor inhibition rate (Day 14 after transplantation) (B16F10 cells; Table 37, 1.57 nmol/head, compared to ODN1826 (SEQ-1)): 0.00% | Tumor inhibition rate (Day 14 after transplantation) (tumor growth): 0.00%

PCRV protein: recombinant PCRV protein C-end HIS derived from Pseudomonas aeruginosa Strain PAO1, antigen given without adjuvant as control
antibody titer (dilution ratio when absorbance at 450 nm is 1.0) (recombinant PCRV protein): 1.3×10^5

SEQ-253 (sense dA*dT*dC*dG*dA*dC*dT*dC*dT*dC*dG*dA*dG*dC*dG*dT*dT*dC*dT*dC)
EC50 (human TLR9): 2.87 µM

SEQ-256 (sense dG*dGdTdGdCdAdTdCdGdAdTdGdCdAdGdGdGdG*dG*dG)
EC50 (human TLR9): 3420 µM | Ratio of average value of antigen-specific CTL (TRP2-specific CTL [3]; [4]): 1.00

SEQ-258 (sense GGTGCATCGATGCAGGGGGG; antisense CCCCCCTGCATCGATG; phosphorothioate, 5' L4-18 lipid, chemistry not fully specified)
EC50 (human TLR9): 16.3 µM | Ratio of average value of antigen-specific CTL (TRP2-specific CTL [3]; [4]): 2.46

SEQ-342 (dT*dC*dG*dA*dC*dG*dT*dT*dC*dG*dT*dC*dG*dT*dT*dC*dG*dT*dC*dG*dT*dT*dC)
EC50 (human TLR9): 2.34 µM | Ratio of average value of antigen-specific CTL (TRP2-specific CTL [3]; [5]): 1.00

SEQ-345 (dT*dC*dG*dC*dG*dA*dC*dG*dT*dT*dC*dG*dC*dC*dC*dG*dA*dC*dG*dT*dT*dC*dG*dG*dT*dA)
EC50 (human TLR9): 6.28 µM | Ratio of average value of antigen-specific CTL (TRP2-specific CTL [3]; [5]): 1.00

SEQ-351 (dT*dC*dG*dT*dC*dG*dT*dT*dT*dT*dC*dG*dG*dC*dG*dC*dG*dC*dG*dC*dC*dG)
EC50 (human TLR9): 11.6 µM

SEQ-354 (dT*dC*dG*dT*dC*dG*dT*dC*dG*dT*dT*dC*dG*dA*dA*dC*dG*dA*dC*dG*dT*dT*dG*dA*dT)
EC50 (human TLR9): 16900 µM | Ratio of average value of antigen-specific CTL (TRP2-specific CTL [1]; Table 66, 4.71 nmol, SEQ-354 (ODN M362) group = 1): 1.00
